A short description of data set [1]: Stability of the powder in sealed aluminium foil bag, purity and titre by HPLC. The format is physicochemical. The settings on record: protected from light; for Titre, starting values: HPLC titre of acid moiety; for Titre, starting values / Purity, starting values: start; for Purity, starting values: airtight container. As to the method: The stability of the compounds listed in the following table, under powder form and in sealed aluminium foil bag, was tested, keeping the samples in airtight container, protected from light and measuring the purity and the titre thereof after 6 and 12 months.
In particular, the stability of the acid moiety was observed by HPLC, detecting the purity and titre thereof.

For data set [2] the following is noted: mice, one capsule.
Procedure: The biological tests were carried out on 12 mice weighing 200-300 g, administering to each of them one 3 mg capsule containing the dose of the selected compound, as below reported, dispersed in lactose.
The haematic values of the selected compound were subsequently evaluated after regular time intervals (0, 30, 60, 95, 120 min.).
The conditions of data set [3]: cited from earlier work.
For data set [4] the following is noted: background statement, cited from earlier work.
Where [5] appears, read: after nine months, U.S. Pat. No. 5,817,659 (Example 1).
[6] abbreviates: after twelve months, U.S. Pat. No. 6,271,374 (Example 1).

Molecules are shown by their SMILES. Like-named read-outs stand apart in the source and are kept apart here.

Consider `CN1c2c(nc(N)[nH]c2=O)NCC1CNc1ccc(C(=O)NC(CCC(=O)O)C(=O)O)cc1.NC1C(O)OC(CO)C(O)C1O.NC1C(O)OC(CO)C(O)C1O` (mixture of isomers) [D-GAL (6R,S)-5-MTHF, D-galactosamine 5-methyl-(6R,S)-tetrahydrofolate], for which, in data set [1], the Titre, starting values was 55.5%; the “Purity, starting values” is reported as 99.1; the “Purity after 6 months” value came to 98.9; the Titre after 6 months came out at 55.2%. Also, in data set [1], the “Purity after 12 months” value turned out to be 98.7 and the Titre after 12 months came to 55.3%.

For the compound `CN1c2c(nc(N)[nH]c2=O)NCC1CNc1ccc(C(=O)NC(CCC(=O)O)C(=O)O)cc1.NC1C(O)OC(CO)C(O)C1O.NC1C(O)OC(CO)C(O)C1O` (mixture of isomers) [D-GLU 5-MTHF, D-glucosamine 5-methyl-(6R,S)-tetrahydrofolate], in data set [1], the Titre, starting values is 55.2%; the “Purity, starting values” stood at 99.1; the “Purity after 6 months” value stood at 98.9; the Titre after 6 months is 55%. Besides, in data set [1], the “Purity after 12 months” value stood at 99.0 and the Titre after 12 months was found to be 54.8%. The compound further returned a haematic value in data set [2] (time 0.5 h) of 83.2 ± 4.9 nmol/L. This compound gave a haematic value in data set [2] (time 1.5 h) of 83.8 ± 4.3 nmol/L. The same compound showed a haematic value in data set [2] (time 2 h) of 82.8 ± 4.3 nmol/L.

As to `CN1c2c([nH]c(N)nc2=O)NC[C@@H]1CNc1ccc(C(=O)N[C@@H](CCC(=O)[O-])C(=O)[O-])cc1.[Ca+2]` [5-methyl-(6S)-tetrahydrofolic acid calcium salts], in data set [3] (after twelve months, U.S. Pat. No. 6,441,168 (Example 1)), the titre decrease entry is “about 1%”.

Consider `Nc1nc(=O)c2c([nH]1)NC[C@@H](CNc1ccc(C(=O)N[C@@H](CCC(=O)[O-])C(=O)[O-])cc1)N2.[Ca+2]` [(6R)-tetrahydrofolic acid calcium salts], for which the titre decrease result in data set [3] (setting [5]) is on record as “about 2%”; in data set [3] (setting [6]), “about 7%”.

For `Nc1nc(=O)c2c([nH]1)NCC(CNc1ccc(C(=O)N[C@@H](CCC(=O)[O-])C(=O)[O-])cc1)N2.[Ca+2]` (stereo partly drawn) [(6R,S)-tetrahydrofolic acid calcium salts], the titre decrease result in data set [3] (setting [5]) is “about 2%”.

On to `Nc1nc(=O)c2c([nH]1)NC[C@H](CNc1ccc(C(=O)N[C@@H](CCC(=O)[O-])C(=O)[O-])cc1)N2.[Ca+2]` [(6S)-tetrahydrofolic acid calcium salts], for which the titre decrease result in data set [3] (setting [5]) is “about 2%”; in data set [3] (setting [6]) it was “about 7%”.

Take `N[C@H]1C(O)O[C@H](CO)[C@H](O)[C@@H]1O.N[C@H]1C(O)O[C@H](CO)[C@H](O)[C@@H]1O.Nc1nc2ncc(CNc3ccc(C(=O)N[C@@H](CCC(=O)O)C(=O)O)cc3)nc2c(=O)[nH]1` [D-GAL folate, D-galactosamine L-folate]: in data set [1], the Titre, starting values amounted to 54.8%; the “Purity, starting values” is recorded as 99.2; the “Purity after 6 months” value came to 99.1; the Titre after 6 months was found to be 54.5%. Also, in data set [1], the “Purity after 12 months” value is on record as 98.7 and the Titre after 12 months amounted to 54.2%.

For the compound `CN1c2c(nc(N)[nH]c2=O)NCC1CNc1ccc(C(=O)NC(CCC(=O)O)C(=O)O)cc1.NC1C(O)OC(CO)C(O)C1O.NC1C(O)OC(CO)C(O)C1O` [D-GLU (6S)-5-MTHF, D-glucosamine 5-methyl-(6S)-tetrahydrofolate], in data set [1], the Titre, starting values amounted to 55.7%; the “Purity, starting values” came out at 99.3; the “Purity after 6 months” value is 99.0; the Titre after 6 months turned out to be 55.4%. Further, in data set [1], the “Purity after 12 months” value was 98.5 and the Titre after 12 months is 55.1%. In data set [2] (time 0.5 h), this compound registered a haematic value of 83.7 ± 5.2 nmol/L. Further, in data set [2] (time 1 h), the haematic value stood at 86.1 ± 5.0 nmol/L. Also, in data set [2] (time 1.5 h), the haematic value was 83.7 ± 4.3 nmol/L. Further, in data set [2] (time 2 h), the haematic value worked out at 83 ± 4.3 nmol/L.

As for `N[C@H]1C(O)O[C@H](CO)[C@@H](O)[C@@H]1O.N[C@H]1C(O)O[C@H](CO)[C@@H](O)[C@@H]1O.Nc1nc2ncc(CNc3ccc(C(=O)N[C@@H](CCC(=O)O)C(=O)O)cc3)nc2c(=O)[nH]1` [D-GLU folate, D-glucosamine L-folate], in data set [1], the Titre, starting values is 54.6%; the “Purity, starting values” was 99.1; the “Purity after 6 months” value came out at 98.8; the Titre after 6 months worked out at 54.3%. For the same compound, in data set [1], the “Purity after 12 months” value came to 98.7 and the Titre after 12 months was determined as 54%. The compound also showed a haematic value in data set [2] (time 0.5 h) of 75.3 ± 4.3 nmol/L. This compound returned a haematic value in data set [2] (time 1 h) of 79.8 ± 5.2 nmol/L. The same compound showed a haematic value in data set [2] (time 1.5 h) of 78.4 ± 4.3 nmol/L. For the same compound, the haematic value in data set [2] (time 2 h) amounted to 76.8 ± 4.3 nmol/L.

As to `Nc1nc2ncc(CNc3ccc(C(=O)N[C@@H](CCC(=O)O)C(=O)O)cc3)nc2c(=O)[nH]1` [Folic acid, N-[4-[[(2-amino-1,4-dihydro-4-oxo-6-pteridinyl)methyl]amino]benzoyl]-L-glutamic acid], in data set [4] (alcohol), the “solubility in alcohol” value is recorded as “insoluble”. Further, the “solubility in dilute solutions of alkali hydroxides and carbonates” value in data set [4] was “readily soluble”. In data set [4] (water), the “solubility in water” value is listed as “very slightly soluble”.
